Experimental findings from patent US9732094B2, “Arylquinazolines” (Merck Patent GmbH, priority 2013, dated 2017) are described below.

Read-outs that look alike come from different tables or passages of the source.

Series [1] addresses DNA-PK phosphorylation at serine 2056 (Homo sapiens (Human), UniProt P78527). The series is described as follows: DNA-PK phosphorylation at serine 2056 (cellular), bleomycin-treated HCT116 cells, ELISA. Conditions: read-out: IC50 pDNA-PK. It counts as cell-based. The method in brief:
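HCT116, MEM alpha + 10% FCS, 37 °C/10% CO2, seeded o/n. Cpd + 10 μM bleomycin, 6 h. ELISA, chemiluminescence; phospho/total DNA-PKcs ratio, DMSO = blank.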
On the technique in general: An ELISA detects its analyte on a solid surface through an enzyme-linked reagent.

Another series addresses Kv11.1 (hERG) (Homo sapiens (Human), UniProt Q12809). The series is described as follows: Kv11.1 (hERG) ion channel activity (patch clamp assay), HEK293 cells transfected with hERG gene.
In the next series the target is DNA-PK (Homo sapiens (Human), UniProt P78527). Put plainly: DNA-PK assay (biochemical), flashplate 33P-ATP kinase assay. The method in brief: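 Reactions ran in streptavidin-coated flashplates and were halted by 200 mM EDTA, with a further 30 min at room temperature before saline washing.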
The mark [2] stands for this setting: cellular DNA-PK phosphorylation at serine 2056, HCT116.
The mark [3] stands for this setting: Ki [Kv1.11 hERG], hERG patch clamp assay (cells without asterisk).
[4] abbreviates: cellular, HCT116 cells, 10 μM bleomycin, six hours.
Where [5] appears, read: read-out: Ki [Kv1.11 hERG], hERG patch clamp assay (cells without asterisk).
[6] abbreviates: Ki [Kv1.11 hERG], patch clamp, HEK293 transfected with hERG gene.
Setting [7] is: read-out: Ki [Kv1.11 hERG], patch clamp, HEK293 transfected with hERG gene.

A word on the IC50: it is the concentration needed to halve the response being measured. As a reminder, the Ki is a measure of affinity in units of concentration, obtained from inhibition or displacement.

Sequence of Kv11.1 (hERG) (Q12809 whole entry): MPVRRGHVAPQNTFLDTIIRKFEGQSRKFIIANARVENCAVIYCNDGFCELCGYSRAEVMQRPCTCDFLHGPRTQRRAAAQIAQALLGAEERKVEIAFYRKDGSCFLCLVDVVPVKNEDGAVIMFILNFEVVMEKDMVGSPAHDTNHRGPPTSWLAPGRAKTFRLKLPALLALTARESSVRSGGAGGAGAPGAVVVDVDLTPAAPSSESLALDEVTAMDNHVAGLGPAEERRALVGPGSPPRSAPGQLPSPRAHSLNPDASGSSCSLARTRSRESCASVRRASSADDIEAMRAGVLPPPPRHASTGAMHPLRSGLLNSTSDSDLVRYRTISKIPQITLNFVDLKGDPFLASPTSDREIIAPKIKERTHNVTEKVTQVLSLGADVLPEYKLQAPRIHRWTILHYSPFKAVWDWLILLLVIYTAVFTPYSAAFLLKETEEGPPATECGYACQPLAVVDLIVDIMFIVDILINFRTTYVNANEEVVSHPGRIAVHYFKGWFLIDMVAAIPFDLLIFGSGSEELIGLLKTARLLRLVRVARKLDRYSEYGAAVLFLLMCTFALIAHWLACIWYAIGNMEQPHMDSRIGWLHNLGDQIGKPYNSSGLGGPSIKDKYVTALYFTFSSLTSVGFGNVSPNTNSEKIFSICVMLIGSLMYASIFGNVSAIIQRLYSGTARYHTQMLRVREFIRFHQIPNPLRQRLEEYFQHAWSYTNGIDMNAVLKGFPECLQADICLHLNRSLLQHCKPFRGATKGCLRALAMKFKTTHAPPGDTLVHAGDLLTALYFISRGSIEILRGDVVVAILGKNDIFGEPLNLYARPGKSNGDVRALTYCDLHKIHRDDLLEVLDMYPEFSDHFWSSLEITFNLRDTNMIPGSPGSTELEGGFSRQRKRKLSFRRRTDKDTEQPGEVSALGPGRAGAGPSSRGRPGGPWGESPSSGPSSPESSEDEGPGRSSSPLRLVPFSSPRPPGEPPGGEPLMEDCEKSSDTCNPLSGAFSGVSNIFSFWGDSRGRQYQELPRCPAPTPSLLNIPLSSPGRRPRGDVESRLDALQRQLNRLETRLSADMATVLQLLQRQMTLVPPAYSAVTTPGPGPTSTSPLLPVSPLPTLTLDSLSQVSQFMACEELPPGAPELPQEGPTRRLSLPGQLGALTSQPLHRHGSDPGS

Regarding `[2H]c1c(N2CCOCC2)cc2ncnc(-c3cc(C(O)c4nccnc4C)ccc3F)c2c1[2H]` (stereo not drawn) [Example 226, [3-(5,6-Dideuterio-7-morpholino-quinazolin-4-yl)-4-fluorophenyl]-(3-melhylpyrazin-2-yl)-methanol], the IC50 in series [1] (setting [2]) was less than 500 nM; against DNA-PK (biochemical DNA-PK assay), 3 to 7 nM. Moreover, the Ki on Kv11.1 (hERG) (setting [3]) was more than 25000 nM.

With `OC(c1ccc(F)c(-c2ncnc3cc(N4CCOCC4)sc23)c1)c1nccnc1Cl` (single isomer, unassigned) [Example 24, (3-Chloro-pyrazin-2-yl)-[4-fluoro-3-(6-morpholin-4-yl-thieno-[3,2-d}pyrimidin-4-yl)-phenyl]methanol], the IC50 in series [1] (setting [4]) was less than 500 nM; at DNA-PK (enzymatic, 5 μM ATP) it was less than 3 nM. Besides, the Ki at Kv11.1 (hERG) (human, HEK293 cells stably transfected with the hERG gene, Ki [Kv1.11 hERG], patch clamp, HEK293 transfected with hERG gene) was in the range of 15000 to 25000 nM.

For the compound `COc1ccc(C(O)c2cc(-c3ncnc4cc(N5CCOCC5)cc(F)c34)c(F)cc2Cl)nn1` (single isomer, unassigned) [Example 271, [2-Chloro-4-fluoro-5-(5-fluoro-7-morpholin-4-yl-quinazolin-4-yl)-phenyl]-(6-methoxy-pyridazin-3-yl)-methanol], the results for the IC50 (in series [1] (setting [2]); against DNA-PK (biochemical DNA-PK assay)) were less than 500 nM and less than 3 nM, respectively. Also, the Ki at Kv11.1 (hERG) (setting [5]) was more than 25000 nM.

For `OC(c1ccc(F)c(-c2ncnc3cc(N4CCOCC4)ccc23)c1)c1nncc2ccsc12` (stereo not drawn) [Example 332, [4-Fluoro-3-(7-morpholin-4-yl-quinazolin-4-yl)-phenyl]thieno[2,3-d}-pyridazin-7-yl-methanol], the IC50 in series [1] (setting [2]) is less than 500 nM; against DNA-PK (biochemical DNA-PK assay), less than 3 nM. Also, the Ki on Kv11.1 (hERG) (setting [3]) is 15000 to 25000 nM.

Turning to `OC(c1ccc(Cl)nn1)c1cc(-c2ncnc3cc(N4CCOCC4)ccc23)c(F)cc1Cl` (stereo not drawn) [Example 41, [2-Chloro-4-fluoro-5-(7-morpholin-4-yl-quinazolin-4-yl)phenyl]-(6-chloro-pyridazin-3-yl)methanol], the IC50 in series [1] (setting [4]) is less than 500 nM; against DNA-PK (enzymatic, 5 μM ATP) it was 3 to 7 nM. At Kv11.1 (hERG) (setting [6]), the Ki lay within 15000 to 25000 nM.

Turning to `OC(c1cc(-c2ncnc3cc(N4CCOCC4)ccc23)ccc1F)c1ncnc2ccsc12` (stereo not drawn) [Example 405, [2-Fluoro-5-(7-morpholin-4-yl-quinazolin-4-yl)-phenyl]thieno[3,2-d}-pyrimidin-4-yl-methanol], the IC50 in series [1] (setting [2]) was less than 500 nM; at DNA-PK (biochemical DNA-PK assay), less than 3 nM. Also, at Kv11.1 (hERG) (setting [5]), the Ki was less than 10000 nM.

Turning to `OC(c1cc(-c2ncnc3cc(N4CCOCC4)ccc23)c(F)cc1F)c1nncc2sccc12` (stereo not drawn) [Example 341, [2,4-Difluoro-5-(7-morpholin-4-yl-quinazolin-4-yl)-phenyl]thieno[2,3-d}-pyridazin-4-yl-methanol], the IC50 in series [1] (setting [2]) was less than 500 nM; against DNA-PK (biochemical DNA-PK assay), less than 3 nM. Further, the inhibition constant Ki at Kv11.1 (hERG) (setting [3]) lay in the range of 15000 to 25000 nM.

As to `COc1cncnc1C(O)c1cc(-c2ncnc3cc(N4CCOCC4)ccc23)ccc1Cl` (stereo not drawn) [Example 409, [2-Chloro-5-(7-morpholin-4-yl-quinazolin-4-yl)-phenyl]-(5-methoxy-pyrimidin-4-yl)-methanol], the concentration for half-maximal inhibition (IC50) in series [1] (setting [2]) lay within 500 to 5000 nM; on DNA-PK (biochemical DNA-PK assay), 3 to 7 nM. Besides, the Ki on Kv11.1 (hERG) (setting [5]) was more than 25000 nM.

On to `OC(c1ccc(F)c(-c2ncnc3cc(N4CCOCC4)ncc23)c1)c1nccs1` (stereo not drawn) [Example 140, [4-Fluoro-3-(7-morpholin-4-yl-pyrido[4,3-d}-pyrimidin-4-yl)-phenyl]thiazol-2-yl-methanol], for which the IC50 is 10000 to 30000 nM in series [1] (Table 5, HCT116 cells) and more than 30 nM against DNA-PK (Table 5). The same compound displayed a Ki on Kv11.1 (hERG) (Ki [Kv1.11 hERG], Table 5) of 15000 to 25000 nM.

For the compound `COc1nccnc1[C@@H](O)c1cc(-c2ncnc3cc(N4CCOCC4)ccc23)c(F)cc1Cl` [Example 456, (S)-(2-Chloro-4-fluoro-5-(7-morprholin-4-yl-quinazolin-4-yl)-pnenyl]-(3-methoxy-pyrazin-2-yl)-methanol], the results for the IC50 (in series [1] (setting [2]); against DNA-PK (biochemical DNA-PK assay)) were less than 500 nM and less than 3 nM, respectively. The Ki on Kv11.1 (hERG) (setting [3]) was in the range of 10000 to 15000 nM.

For the compound `Cn1c(C(O)c2cc(-c3ncnc4cc(N5CCOCC5)ccc34)ccc2Cl)cccc1=O` (single isomer, unassigned) [Example 364, 6-{[2-Chloro-5-(7-morpholin-4-yl-quinazolin-4-yl)-phenyl]hydroxy-methyl}-1-methyl-1H-pyridin-2-one], the IC50 in series [1] (setting [2]) is less than 500 nM; against DNA-PK (biochemical DNA-PK assay) it was less than 3 nM. Besides, at Kv11.1 (hERG) (setting [5]), the Ki is more than 25000 nM.

Consider `COc1nccnc1C(O)c1cc(-c2ncnc3cc(N4CCOCC4)ccc23)c(F)cc1F` (stereo not drawn) [Example 454, [2,4-Difluoro-5-(7-morpholin-4-yl-quinazolin-4-yl)-phenyl]-(3-methoxy-pyrazin-2-yl)-methanol], for which the figures for the IC50 (in series [1] (setting [2]); at DNA-PK (biochemical DNA-PK assay)) were less than 500 nM and less than 3 nM, respectively. The Ki at Kv11.1 (hERG) (setting [5]) was more than 25000 nM.

For `Cc1cncnc1C(O)c1cc(-c2ncnc3cc(N4CCOCC4)ccc23)ccc1F` (stereo not drawn) [Example 392, [2-Fluoro-5-(7-morpholin-4-yl-quinazolin-4-yl)-phenyl]-(5-methyl-pyrimidin-4-yl)-methanol], the IC50 is 500 to 5000 nM in series [1] (setting [2]) and 3 to 7 nM against DNA-PK (biochemical DNA-PK assay). The same compound yielded a Ki on Kv11.1 (hERG) (setting [3]) of 15000 to 25000 nM.

Consider `COc1cc(Cl)nnc1C(O)c1cc(-c2ncnc3cc(N4CCOCC4)ccc23)c(F)cc1Cl` (stereo not drawn) [Example 8, [2-Chloro-4-fluoro-5-(7-morpholin-4-yl-quinazolin-4-yl)phenyl]-(6-chloro-4-methoxy-pyridazin-3-yl)methanol], for which the half-maximal inhibitory concentration (IC50) in series [1] (setting [4]) was in the range of 500 to 5000 nM; against DNA-PK (enzymatic, 5 μM ATP) it was 7 to 30 nM. Besides, the Ki at Kv11.1 (hERG) (setting [6]) lay in the range of 10000 to 15000 nM.

On to `Cc1cnnc(C(O)c2cc(-c3ncnc4cc(N5CCOCC5)ccc34)c(F)cc2Cl)c1` (stereo not drawn) [Example 46, [2-Chloro-4-fluoro-5-(7-morpholin-4-yl-quinazolin-4-yl)phenyl]-(5-methylpyridazin-3-yl)methanol], for which the IC50 was in the range of 5000 to 10000 nM in series [1] (setting [4]) and 7 to 30 nM at DNA-PK (enzymatic, 5 μM ATP). On Kv11.1 (hERG) (setting [6]), this compound showed a Ki of 15000 to 25000 nM.

`COc1cnc(C(O)c2ccc(F)c(-c3ncnc4cc(N5CCOCC5)ccc34)c2)cn1` (stereo not drawn) [Example 52, [4-Fluoro-3-(7-morpholin-4-yl-quinazolin-4-yl)phenyl]-(5-methoxy-pyrazin-2-yl)methanol]: the IC50 in series [1] (setting [4]) fell in the range of 5000 to 10000 nM; against DNA-PK (enzymatic, 5 μM ATP), 3 to 7 nM. Also, the Ki on Kv11.1 (hERG) (setting [7]) was more than 25000 nM.

As to `OC(c1cc(-c2ncnc3cc(N4CCOCC4)ccc23)c(F)cc1F)c1ncnc2ccoc12` (stereo not drawn) [Example 444, [2,4-Difluoro-5-(7-morpholin-4-yl-quinazolin-4-yl)-phenyl]furo[3,2-d}-pyrimidin-4-yl-methanol], the IC50 in series [1] (setting [2]) is 500 to 5000 nM; on DNA-PK (biochemical DNA-PK assay), less than 3 nM. Further, at Kv11.1 (hERG) (setting [5]), the Ki was more than 25000 nM.

For `OC(c1cc(-c2ncnc3cc(N4CCOCC4)ccc23)c(F)cc1Cl)c1nccn2ccnc12` (single isomer, unassigned) [Example 396], the IC50 is less than 500 nM in series [1] (setting [2]) and 3 to 7 nM on DNA-PK (biochemical DNA-PK assay). Besides, on Kv11.1 (hERG) (setting [5]), the Ki is more than 25000 nM.

Turning to `O=c1ccc(C(O)c2cc(-c3ncnc4cc(N5CCOCC5)ccc34)c(F)cc2Cl)n[nH]1` (stereo not drawn) [Example 92, 3-[[2-Chloro-4-fluoro-5-(7-morpholino-quinazolin-4-yl)phenyl]-hydroxymethyl]-1H-pyridazin-6-one], the IC50 in series [1] (setting [4]) is less than 500 nM; at DNA-PK (enzymatic, 5 μM ATP), less than 3 nM. Also, the Ki on Kv11.1 (hERG) (setting [7]) is more than 25000 nM.

As for `Cc1cncnc1C(O)c1cc(-c2ncnc3cc(N4CCOCC4)ccc23)ccc1Cl` (stereo not drawn) [Example 418, [2-Chloro-5-(7-morpholin-4-yl-quinazolin-4-yl)-phenyl]-(5-methyl-pyrimidin-4-yl)-methanol], the IC50 in series [1] (setting [2]) is 500 to 5000 nM; on DNA-PK (biochemical DNA-PK assay), 7 to 30 nM. Besides, the Ki at Kv11.1 (hERG) (setting [5]) is more than 25000 nM.
